Measurements: the supplement of paper PMC10307832

Key:
Experiment in all cases: relative viability (nuclei count vs DMSO), 5 days (fraction); higher = more cells survive
VE-821 + Alpelisib = compound: CS(=O)(=O)c1ccc(-c2cnc(N)c(C(=O)Nc3ccccc3)n2)cc1 [VE-821] + Cc1nc(NC(=O)N2CCC[C@H]2C(N)=O)sc1-c1ccnc(C(C)(C)C(F)(F)F)c1 [Alpelisib] (partner 2 µM)
Summary of the method: (§1)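 Nuclei were stained with Hoechst during a one-step fixation (final 0.05% Triton X-100, 1% formaldehyde, 1 ug/ml Hoechst) carried out 5 days after dosing, then counted on 4× images. The cells, lung cancer lines in 1536-well plates, had been dosed by pin tool the day after seeding with one drug alone or a fixed anchor-drug dose plus five library-drug doses (not always all listed) in √10 steps. Relative viability is the nuclei count in treated wells divided by that in vehicle wells, and each value is the median of duplicate plates.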

VE-821 + Olaparib = compound: CS(=O)(=O)c1ccc(-c2cnc(N)c(C(=O)Nc3ccccc3)n2)cc1 [VE-821] + O=C(c1cc(Cc2n[nH]c(=O)c3ccccc23)ccc1F)N1CCN(C(=O)C2CC2)CC1 [Olaparib] (partner 8 µM)
Summary of the method: as §1

Vismodegib + Trametinib = compound: CS(=O)(=O)c1ccc(C(=O)Nc2ccc(Cl)c(-c3ccccn3)c2)c(Cl)c1 [Vismodegib] + CC(=O)Nc1cccc(-n2c(=O)n(C3CC3)c(=O)c3c(Nc4ccc(I)cc4F)n(C)c(=O)c(C)c32)c1 [Trametinib] (partner 0.02 µM)
Summary of the method: as §1

Vismodegib + Lapatinib = compound: CS(=O)(=O)c1ccc(C(=O)Nc2ccc(Cl)c(-c3ccccn3)c2)c(Cl)c1 [Vismodegib] + CS(=O)(=O)CCNCc1ccc(-c2ccc3ncnc(Nc4ccc(OCc5cccc(F)c5)c(Cl)c4)c3c2)o1 [Lapatinib] (partner 2 µM)
Summary of the method: as §1

| Cell Line | relative viability (VE-821 + Alpelisib; first compound 0.08 µM) | relative viability (VE-821 + Alpelisib; first compound 0.253 µM) | relative viability (VE-821 + Alpelisib; first compound 0.8 µM) | relative viability (VE-821 + Alpelisib; first compound 2.53 µM) | relative viability (VE-821 + Alpelisib; first compound 8 µM) | relative viability (VE-821 + Olaparib; first compound 0.08 µM) | relative viability (VE-821 + Olaparib; first compound 0.253 µM) | relative viability (VE-821 + Olaparib; first compound 0.8 µM) | relative viability (VE-821 + Olaparib; first compound 2.53 µM) | relative viability (VE-821 + Olaparib; first compound 8 µM) | relative viability (Vismodegib + Trametinib; first compound 0.08 µM) | relative viability (Vismodegib + Trametinib; first compound 0.253 µM) | relative viability (Vismodegib + Trametinib; first compound 0.8 µM) | relative viability (Vismodegib + Trametinib; first compound 2.53 µM) | relative viability (Vismodegib + Trametinib; first compound 8 µM) | relative viability (Vismodegib + Lapatinib; first compound 0.08 µM) | relative viability (Vismodegib + Lapatinib; first compound 0.253 µM) | relative viability (Vismodegib + Lapatinib; first compound 0.8 µM) | relative viability (Vismodegib + Lapatinib; first compound 2.53 µM) | relative viability (Vismodegib + Lapatinib; first compound 8 µM) |
| --- | --- | --- | --- | --- | --- | --- | --- | --- | --- | --- | --- | --- | --- | --- | --- | --- | --- | --- | --- | --- |
| HOP-62 | 1.09 | 0.646 | 0.723 | 0.928 | 0.93 | 0.375 | 0.477 | 0.418 | 0.212 | 0.252 | 0.357 | 0.379 | 0.37 | 0.354 | 0.376 | 0.981 | 0.891 | 0.934 | 1.04 | 0.926 |
| LC-2-ad | 0.991 | 0.846 | 0.926 | 1.01 | 0.686 | 0.714 | 0.709 | 0.725 | 0.592 | 0.519 | 0.892 | 0.834 | 0.894 | 0.834 | 0.898 | 0.917 | 0.963 | 0.993 | 0.943 | 0.954 |
| LCLC-97TM1 | 0.315 | 0.244 | 0.22 | 0.292 | 0.222 | 0.483 | 0.373 | 0.418 | 0.359 | 0.166 | 0.207 | 0.166 | 0.205 | 0.173 | 0.208 | – | – | 0.663 | – | 1.03 |
| LK-2 | 1.14 | 1.17 | 0.925 | 1.29 | 0.672 | 0.991 | 0.826 | 0.879 | 0.916 | 0.69 | 0.645 | 0.726 | 0.628 | 0.831 | 0.615 | 0.916 | 0.941 | 0.893 | 0.896 | 0.72 |
| LOU-NH91 | 0.747 | 0.738 | 0.66 | 0.75 | 0.702 | 0.988 | 0.921 | 0.924 | 0.916 | 0.847 | 0.762 | 0.804 | 0.8 | 0.786 | 0.772 | 0.757 | 0.798 | 0.663 | 0.745 | 0.841 |
| LU99A | 0.585 | 0.512 | 0.444 | 0.414 | 0.277 | 0.245 | 0.228 | 0.176 | 0.143 | 0.122 | 0.586 | 0.524 | 0.536 | 0.531 | 0.539 | 0.928 | 1.04 | 1.04 | 1.04 | 0.979 |
| LXF-289 | 1.14 | 1.06 | 1.02 | 1.2 | 1.18 | 1.3 | 1.05 | 1.24 | 1.37 | 0.903 | 0.675 | 0.654 | 0.723 | 0.664 | 0.648 | 0.912 | 0.894 | 0.916 | 0.962 | 0.875 |
| NCI-H23 | 0.734 | 0.69 | 0.512 | 0.624 | 0.416 | 0.311 | 0.245 | 0.201 | 0.195 | 0.125 | 0.511 | 0.353 | 0.368 | 0.411 | 0.482 | 1.1 | 1.08 | 1.09 | 1.11 | 1.09 |
| NCI-H322M | 0.728 | – | 0.763 | 0.881 | 0.612 | 0.783 | 0.842 | 0.712 | 0.653 | 0.458 | 0.52 | 0.507 | 0.522 | 0.518 | 0.525 | 0.631 | 0.646 | 0.519 | 0.565 | 0.572 |
| NCI-H358 | 1.04 | 0.999 | 0.904 | 0.838 | 0.605 | 0.69 | 0.622 | 0.698 | 0.697 | 0.665 | 0.151 | 0.139 | 0.14 | 0.128 | 0.139 | 0.471 | 0.505 | 0.422 | 0.518 | 0.461 |
| NCI-H460 | 0.561 | 0.394 | 0.23 | 0.279 | 0.0265 | 0.52 | 0.378 | 0.231 | 0.138 | 0.118 | 0.175 | 0.132 | 0.127 | 0.141 | 0.107 | 0.903 | 0.887 | 1.2 | 0.823 | 1.03 |
| NCI-H520 | 0.953 | 1.1 | – | 0.883 | 0.784 | 0.321 | 0.386 | 0.307 | 0.275 | 0.228 | 0.702 | 0.554 | 0.768 | 0.692 | 0.74 | 0.856 | 0.921 | 0.977 | 0.844 | 1.01 |
| NCI-H596 | 0.486 | 0.458 | 0.39 | 0.511 | 0.413 | 0.701 | 0.714 | 0.545 | 0.555 | 0.527 | 0.746 | 0.82 | 0.744 | 0.779 | 0.896 | 0.983 | 1.07 | 0.941 | 1.1 | 1.09 |
| NCI-H647 | 1.17 | 1.07 | 0.944 | 0.901 | 0.424 | 0.504 | 0.546 | 0.413 | 0.184 | 0.101 | 0.446 | 0.486 | 0.517 | 0.409 | 0.55 | 0.99 | 0.998 | 1.17 | 1.01 | 1.12 |
| NCI-H650 | 1.19 | 1.25 | 0.932 | 1.19 | 1.1 | 0.44 | 0.432 | 0.422 | 0.482 | 0.439 | 0.891 | 0.91 | 0.846 | 0.981 | 1.05 | 0.967 | 0.695 | 0.623 | 0.841 | 0.899 |
| NCI-H661 | 0.693 | 0.705 | 0.573 | 0.765 | 0.559 | 0.766 | 0.801 | 0.671 | 0.708 | 0.687 | 0.549 | 0.611 | 0.649 | 0.558 | 0.622 | 0.464 | 0.488 | 0.534 | 0.483 | 0.493 |
